From publication PMC8517038 (Molecular psychiatry, 2021)
Read-outs that look alike come from different tables or passages of the source.

Columns and labels:
MOR [1] = molecular target: T1, MOR (Homo sapiens, UniProt P35372); assay: cAMP accumulation BRET; type: cell-based
locomotor activity = assay: Locomotor activity in mice; type: in vivo; details: for acute locomotor activity: male mice, 5, 10 and 20 mg/kg IP every 30 min
[2] = molecular target: PCP binding site of the NMDAR (Rattus norvegicus, UniProt P35439); assay: Binding and enzyme target profile screen; details: 10 μM
[3] = test system: conditioned place preference; details: 40 mg/kg IP, cited from earlier work
locomotor sensitization = assay: Locomotor; type: in vivo; details: male mice; for locomotor (psychomotor) sensitization over days: 20 mg/kg IP for 3 days
drug self-administration = assay: Intravenous self-administration in rats; type: in vivo; details: for dose response curve of self-administration: 0.125, 0.25, 0.5, 1.0 mg/kg/infusion, FR1; for extinction of drug self-administration: after retraining on FR1; for self-administration during training: male and female rats, 0.5 mg/kg/infusion, FR1 20-s timeout, 16 sessions
KOR [4] = molecular target: T2, KOR (Homo sapiens, UniProt P41145); assay: cAMP accumulation BRET; type: cell-based
T2 sequence (P41145 whole entry): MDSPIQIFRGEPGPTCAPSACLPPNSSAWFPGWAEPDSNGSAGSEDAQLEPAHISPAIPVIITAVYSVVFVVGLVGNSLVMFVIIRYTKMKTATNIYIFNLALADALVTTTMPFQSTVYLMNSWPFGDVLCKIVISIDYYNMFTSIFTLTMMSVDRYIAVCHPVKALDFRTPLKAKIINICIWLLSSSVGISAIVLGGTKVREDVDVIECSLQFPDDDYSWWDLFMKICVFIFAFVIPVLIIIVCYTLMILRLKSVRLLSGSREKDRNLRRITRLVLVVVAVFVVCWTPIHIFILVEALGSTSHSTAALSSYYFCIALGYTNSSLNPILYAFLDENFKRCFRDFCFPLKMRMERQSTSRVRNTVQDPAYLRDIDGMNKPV

mu-opioid receptor (MOR) = mu-opioid receptor (MOR) (Homo sapiens, UniProt P35372); assay: Binding and enzyme target profile screen; details: 10 μM
mu-opioid receptor (MOR), sequence (P35372 whole entry): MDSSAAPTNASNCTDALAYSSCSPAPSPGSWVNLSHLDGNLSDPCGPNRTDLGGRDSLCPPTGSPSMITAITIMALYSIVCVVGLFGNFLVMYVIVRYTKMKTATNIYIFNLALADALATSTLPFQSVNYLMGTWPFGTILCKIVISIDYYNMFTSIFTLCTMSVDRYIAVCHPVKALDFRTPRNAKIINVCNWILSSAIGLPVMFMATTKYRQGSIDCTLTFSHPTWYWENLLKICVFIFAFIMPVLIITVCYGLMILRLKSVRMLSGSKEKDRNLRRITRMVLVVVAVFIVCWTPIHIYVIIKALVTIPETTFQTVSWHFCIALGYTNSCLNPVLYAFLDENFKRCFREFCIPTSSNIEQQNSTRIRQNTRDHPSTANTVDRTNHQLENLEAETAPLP

[5] = test system: morphine CPP and opioid withdrawal; details: mice; cited from earlier work
dopamine tone [6] = assay: [18F]-Fallypride PET; type: in vivo, rat; details: 10 mg/kg IV infusion for 40 min
Sigma-1 = Sigma-1 (Rattus norvegicus, UniProt Q9R0C9); assay: Competitive radioligand binding, [3H]
Sigma-1, sequence (Q9R0C9 whole entry): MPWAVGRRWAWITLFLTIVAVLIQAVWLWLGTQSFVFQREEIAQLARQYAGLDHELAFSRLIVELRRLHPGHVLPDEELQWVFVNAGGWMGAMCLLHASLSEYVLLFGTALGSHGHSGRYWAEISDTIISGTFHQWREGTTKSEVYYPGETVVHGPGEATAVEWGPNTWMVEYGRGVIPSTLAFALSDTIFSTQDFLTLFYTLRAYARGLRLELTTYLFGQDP

[7] = test system: conditioned place preference; assay: Conditioned place preference in mice; type: in vivo; details: male mice, 10 mg/kg IP, 6 days pairing
MOR [8] = molecular target: T1, MOR; assay: β-arrestin recruitment BRET in transfected HEK-293 cells; type: cell-based
KOR [9] = molecular target: T2, KOR; assay: as above; type: cell-based
KOR [10] = molecular target: T2, KOR; assay: Binding and enzyme target profile screen
[11] = test system: methamphetamine-induced locomotion; details: 10 mg/kg/day, twice weekly for 8 weeks; cited from earlier work
dopamine tone [12] = details: awake monkeys; cited from earlier work
[13] = test system: NMDARs over opioid receptors; details: canonical high affinity NMDAR antagonist; no reference given; cited from earlier work

T1 sequence (P35372 whole entry): as the sequence (P35372 whole entry) above

SMILES	mode of action at MOR, cAMP assay (MOR [1])	acute locomotor activity (locomotor activity)	hit (>50% inhibition) at PCP binding site of the NMDAR [2]	locomotor activity after 20 mg/kg IP injection (locomotor sensitization)	locomotor (psychomotor) sensitization over days (locomotor sensitization)	dose response curve of self-administration (drug self-administration)	extinction of drug self-administration (drug self-administration)	self-administration during training (drug self-administration)	mode of action at KOR, cAMP assay (KOR [4])	hit (>50% inhibition) at MOR (mu-opioid receptor (MOR))	global extracellular dopamine levels in the dorsal striatum ([18F]fallypride) (dopamine tone [6])	conditioned place preference for drug-paired chamber [7]	activation of the β-arrestin pathway, MOR (MOR [8])	activation of the β-arrestin pathway, KOR (KOR [9])	further results
CN[C@@]1(c2ccccc2Cl)CCCCC1=O [(R)-ketamine]	weaker partial agonist	increasing it only at the 20 mg/kg dose	positive hit	increased locomotor activity	but not (R)-ketamine induced psychomotor sensitization	did not show this pattern of responding	rapid extinction of drug seeking	weaker and less reliable	weaker partial agonist	not for (R)-ketamine	Neither (S)- nor (R)-ketamine significantly changed	not for the (R)-ketamine-paired chamber	Neither (S)- nor (R)-ketamine activated	Neither (S)- nor (R)-ketamine activated	Emax MOR, cAMP assay (MOR [1]; % morphine maximum response): 39 ± 3%; EC50 (MOR [1]; read-out: EC50 MOR, cAMP assay, HEK-293 transfected with MOR): 34 ± 14 µM; CPP in mice ([3]; ref 68): did not produce CPP; CPP in mice ([3]; ref 71): produced CPP in mice; cross-sensitization to (S)-ketamine (locomotor sensitization; repeated 20 mg/kg IP): did not cross-sensitize to (S)-ketamine; Emax KOR, cAMP assay (KOR [4]; % morphine maximum response): < 50%; EC50 (KOR [4]; read-out: EC50 KOR, cAMP assay, HEK-293 transfected with KOR): > 100 µM; morphine CPP and naloxone-precipitated opioid withdrawal [5]: decreases morphine CPP and naloxone-precipitated opioid withdrawal; Ki (Sigma-1; read-out: Ki sigma-1, rat whole brain, [3H](+)pentazocine): 27 ± 3 µM; inhibition of KOR binding (KOR [10]; 10 μM): ~ 13%
CN[C@]1(c2ccccc2Cl)CCCCC1=O [(S)-ketamine]	partial agonist	more potent than (R)-ketamine in increasing locomotor activity	positive hit	increased locomotor activity	showed locomotor sensitization over days	characteristic inverted U-shaped dose response curve	rapid extinction of drug seeking	self-administered (S)-ketamine with a significant escalation of drug intake	full agonist	identified as a hit for (S)-ketamine	Neither (S)- nor (R)-ketamine significantly changed	significant preference for the (S)-ketamine-paired chamber	Neither (S)- nor (R)-ketamine activated	Neither (S)- nor (R)-ketamine activated	EC50 (MOR [1]): 9 ± 2 µM; Emax (MOR [1]; HEK293, read-out: Emax MOR, cAMP assay): 48 ± 3%; average self-administered intake (drug self-administration; dose response test): ~ 15 mg/kg/h; EC50 (KOR [4]): 16 ± 4 µM; Emax (KOR [4]; HEK293, read-out: Emax KOR, cAMP assay): 84 ± 5%; methamphetamine-induced locomotion in mice [11]: led to increased methamphetamine-induced locomotion; Ki (Sigma-1): 131 ± 15 µM; [11C]raclopride binding (dopamine tone) (dopamine tone [12]): decreases in [^11C]raclopride binding; inhibition at 10 µM (KOR [10]; read-out: inhibition of KOR binding): ~35%
C[C@]12N[C@H](Cc3ccccc31)c1ccccc12 [MK-801]	–	–	–	–	–	–	–	–	–	–	–	–	–	–	selectivity for NMDAR over opioid receptors [13]: ~ 1000 fold
O=C1CC[C@@]2(O)[C@H]3Cc4ccc(O)c5c4[C@@]2(CCN3CC2CC2)[C@H]1O5 [naltrexone]	–	–	–	–	–	–	–	–	–	–	–	–	–	–	effect on (S)-ketamine-induced locomotor activity (locomotor activity; naltrexone 10 mg/kg IP pretreatment, male mice): partially blocked
